Experiment [1] deals with T1, 11β-hsd-1 enzyme (Homo sapiens, UniProt P28845). As to the kind of experiment: biochemical. A digest of the protocol:
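Enzyme (5 nM) pre-incubated ≥30 min at RT with inhibitor and 500 μM NADPH in triethanolamine buffer pH 8.0; reaction started with glucose-6-phosphate regenerating system and 200 nM 3H-cortisone, stopped with DMSO after 60 min. Product quantified by radio-HPLC; Kiapp from Morrison tight-binding equation.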

Experiment [2] deals with T1, 11β-hsd-1 enzyme. As to the kind of experiment: biochemical. The settings on record: for inhibition at 0.1 µM: read-out: % Inh @ 0.1 μM; for inhibition / inhibition at 100 µM: read-out: % Inh @ 0.1 mM; for inhibition at 100 µM: Table 2, inhibitor 0.1 mM as printed. In a few lines:
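Human 11β-HSD-1 (5 nM) pre-incubated ≥30 min with inhibitor and 500 μM NADPH in triethanolamine buffer pH 8.0 with NaCl, n-dodecyl β-D-maltoside and β-ME; reaction started with G6P/G6PDH/MgCl2 regenerating system and 200 nM 3H-cortisone, run 60 min, stopped with DMSO. 3H-cortisol and substrate separated by radio-HPLC; percent inhibition from peak areas.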

The values below come from patent publication US20070027118A1 (priority 2005, published 2007).

Where two headings read alike, the source gives them in different places.

T1 sequence (P28845 whole entry, species assumed): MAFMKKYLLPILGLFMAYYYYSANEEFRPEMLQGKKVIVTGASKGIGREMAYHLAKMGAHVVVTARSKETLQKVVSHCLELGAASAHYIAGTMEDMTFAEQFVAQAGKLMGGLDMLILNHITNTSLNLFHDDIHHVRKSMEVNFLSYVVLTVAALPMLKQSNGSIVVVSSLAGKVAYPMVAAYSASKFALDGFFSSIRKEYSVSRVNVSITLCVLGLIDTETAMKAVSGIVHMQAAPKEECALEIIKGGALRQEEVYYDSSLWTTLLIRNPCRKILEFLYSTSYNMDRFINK

For `O=S(=O)(Nc1cccc(CCO)n1)N1CCc2ccccc2CC1` [Example 16, N-[6-(2-hydroxyethyl)pyridin-2-yl]-1,2,4,5-tetrahydro-3H-3-benzazepine-3-sulfonamide], on 11β-hsd-1 enzyme [1], affinity was put at a Ki of 2.4 nM. Besides, the inhibition at 0.1 µM at 11β-hsd-1 enzyme [2] is 100%.

At 11β-hsd-1 enzyme [1], `CCc1cccc(NS(=O)(=O)N2CCC(c3ccccc3F)CC2)n1` [Example 113, N-(6-ethylpyridin-2-yl)-4-(2-fluorophenyl)piperidine-1-sulfonamide] returned a Ki of 16 nM. At 11β-hsd-1 enzyme [2], the inhibition worked out at 89.2%.

`CCc1cccc(NS(=O)(=O)N2CCCC(COC)CC2)n1` (centres unmarked) [Example 93, N-(6-ethylpyridin-2-yl)-4-(methoxymethyl)azepane-1-sulfonamide] showed a Ki on 11β-hsd-1 enzyme [1] of 110 nM. The inhibition on 11β-hsd-1 enzyme [2] was determined as 69.7%.

In turn, `CCc1cccc(NS(=O)(=O)N2CCN(c3ncc(C(F)(F)F)cc3Cl)CC2)n1` [Example 195, 4-[3-chloro-5-(trifluoromethyl)pyridin-2-yl]-N-(6-ethylpyridin-2-yl)piperazine-1-sulfonamide] showed an inhibition constant Ki at 11β-hsd-1 enzyme [1] of 29 nM. The inhibition at 11β-hsd-1 enzyme [2] was found to be 92.3%.

For `Cc1cccc(NS(=O)(=O)N2CCN(c3ncccc3C#N)CC2)n1` [Example 132, 4-(3-cyanopyridin-2-yl)-N-(6-methylpyridin-2-yl)piperazine-1-sulfonamide], the affinity on 11β-hsd-1 enzyme [1], expressed as Ki, was 46 nM. The inhibition at 11β-hsd-1 enzyme [2] turned out to be 74.8%.

For `CCc1cccc(NS(=O)(=O)N2CCc3conc3CC2)n1` [Example 181, N-(6-ethylpyridin-2-yl)-4578-tetrahydro-6H-isoxazolo[34-d]azepine-6-sulfonamide], the Ki at 11β-hsd-1 enzyme [1] turned out to be 96 nM. The inhibition at 11β-hsd-1 enzyme [2] was found to be 83.4%.

Molecule `O=C1CN(S(=O)(=O)Nc2ccc3ccccc3n2)CCN1C1CCCC1` [Example 169, 4-cyclopentyl-3-oxo-N-quinolin-2-ylpiperazine-1-sulfonamide] came in with a Ki on 11β-hsd-1 enzyme [1] of 68 nM. For the same molecule, the inhibition on 11β-hsd-1 enzyme [2] was determined as 84.6%.

`Cc1cccc(NS(=O)(=O)N2CCCN(c3ncccc3C#N)CC2)n1` [Example 139, 4-(3-cyanopyridin-2-yl)-N-(6-methylpyridin-2-yl)-14-diazepane-1-sulfonamide] gave a Ki on 11β-hsd-1 enzyme [1] of 88 nM. Also, the inhibition on 11β-hsd-1 enzyme [2] came to 86.5%.

As for `CCc1cccc(NS(=O)(=O)N2CC[C@@H]3CCCC[C@@H]3C2)n1` (racemic) [Example 120, (4aS*8aS*)-N-(6-ethylpyridin-2-yl)octahydro-isoquinoline-2(1H)-sulfonamide], the inhibitory constant (Ki) on 11β-hsd-1 enzyme [1] was 13 nM. On 11β-hsd-1 enzyme [2], the inhibition came out at 100%.

Regarding `CCc1cccc(NS(=O)(=O)N2CCN(c3nc4ncccc4o3)CC2)n1` [Example 145, N-(6-ethylpyridin-2-yl)-4-[13]oxazolo[45-b]pyridin-2-ylpiperazine-1-sulfanamide], the inhibitory constant (Ki) at 11β-hsd-1 enzyme [1] was 62 nM. Also, the inhibition at 11β-hsd-1 enzyme [2] amounted to 79.2%.

As for `N#Cc1cccnc1N1CCN(S(=O)(=O)Nc2ccc3ccccc3n2)CC1` [Example 162, 4-(3-cyanopyridin-2-yl)-N-quinolin-2-ylpiperazine-1-sulfonamide], at 11β-hsd-1 enzyme [1], the Ki is 26 nM. At 11β-hsd-1 enzyme [2], the inhibition is 92.2%.

Molecule `CCc1cccc(NS(=O)(=O)N2CCCC(c3ccnc(N4CCOCC4)n3)C2)n1` (centres unmarked) [Example 71, N-(6-ethylpyridin-2-yl)-3-(2-morpholin-4-ylpyrimidin-4-yl)pipendine-1-sulfonamide] gave a Ki on 11β-hsd-1 enzyme [1] of 23 nM. The inhibition on 11β-hsd-1 enzyme [2] came to 92.7%.

`CCc1cccc(NS(=O)(=O)N2CCCC(C)C2)n1` (centres unmarked) [Example 118, N-(6-ethylpyridin-2-yl)-3-methylpiperidine-1-sulfonamide] had a Ki on 11β-hsd-1 enzyme [1] of 59 nM. The inhibition on 11β-hsd-1 enzyme [2] was found to be 73.6%.

With `O=S(=O)(Nc1ccc2ccccc2n1)N1CCN(c2ccccn2)CC1` [Example 156, 4-pyridin-2-yl-N-quinolin-2-ylpiperazine-1-sulfonamide], the affinity at 11β-hsd-1 enzyme [1] corresponds to a Ki of 17 nM. The inhibition at 11β-hsd-1 enzyme [2] was determined as 92.9%.

With `CS(=O)(=O)c1ccc2c(c1)CCN(S(=O)(=O)Nc1ccc3ccccc3n1)CC2` [Example 12, 7-(Methylsulfonyl)-N-quinolin-2-yl-1,2,4,5-tetrahydro-3H-3-benzazepine-3-sulfonamide], the Ki at 11β-hsd-1 enzyme [1] came out at 8.6 nM. Moreover, the inhibition at 0.1 µM at 11β-hsd-1 enzyme [2] (Table 1, inhibitor 0.1 μM) was 100%.

In the case of `CCc1cccc(NS(=O)(=O)N2CCCN(c3ccc(C#N)cn3)CC2)n1` [Example 42], the Ki at 11β-hsd-1 enzyme [1] amounted to 17 nM. Also, at 11β-hsd-1 enzyme [2], the inhibition at 0.1 µM came to 89%.

On 11β-hsd-1 enzyme [1], `CCc1cccc(NS(=O)(=O)N2CCN(c3nc4ccc(Cl)cc4o3)CC2)n1` [Example 186, 4-(6-chloro-13-benzoxazol-2-yl)-N-(6-ethylpyridin-2-yl)piperazine-1-sulfonamide] yielded a Ki of 8.9 nM. The inhibition at 100 µM at 11β-hsd-1 enzyme [2] came to 100%.

Turning to `CCc1cccc(NS(=O)(=O)N2CCCC(COc3ccccc3F)C2)n1` (centres unmarked) [Example 114, N-(6-ethylpyridin-2-yl)-3-[(2-fluorophenoxy)methyl]piperi-dine-1-sulfonamide], on 11β-hsd-1 enzyme [1], the affinity, expressed as Ki, was 15 nM. The inhibition at 11β-hsd-1 enzyme [2] amounted to 97.4%.

`O=S(=O)(Nc1ccc2ncccc2n1)N1CCN(c2ccc(C(F)(F)F)cn2)CC1` [Example 35, N-1,5-naphthyridin-2-yl-4-[5-(trifluoromethyl)pyridin-2-yl]piperazine-1-sulfonamide] gave a Ki at 11β-hsd-1 enzyme [1] of 10 nM. Also, the inhibition at 0.1 µM at 11β-hsd-1 enzyme [2] was 100%.

For the molecule `O=S(=O)(Nc1ccc2ccccc2n1)N1CCCC(COCC2CC2)CC1` (centres unmarked) [Example 98, 4-[(cyclapropylmethoxy)meth-yl]-N-quinolin-2-ylazepane-1-sulfonamide], affinity at 11β-hsd-1 enzyme [1] was put at a Ki of 28 nM. On 11β-hsd-1 enzyme [2], the inhibition worked out at 92.4%.

With `Cc1cccc(NS(=O)(=O)N2CCCN(C(=O)OCc3ccccc3)CC2)n1` [Example 134, benzyl 4-{[(6-methylpyridin-2-yl)amino]sulfonyl}-14-diazepane-1-carboxylate], at 11β-hsd-1 enzyme [1], the Ki was 110 nM. Moreover, on 11β-hsd-1 enzyme [2], the inhibition came out at 76.7%.

With `O=S(=O)(Nc1ccc2ccccc2n1)N1CCN(c2ncccn2)CC1` [Example 154, 4-pyrimidin-2-yl-N-quinolin-2-ylpiperazine-1-sulfonamide], on 11β-hsd-1 enzyme [1], the Ki is 5.1 nM. Moreover, the inhibition at 11β-hsd-1 enzyme [2] came to 100%.

Take `COc1ccc2oc(N3CCN(S(=O)(=O)Nc4ccc5ccccc5n4)CC3)nc2c1` [Example 166, 4-(5-methoxy-13-benzoxazol-2-yl)-N-quinolin-2-ylpiperazine-1-sulfonamide]: the Ki on 11β-hsd-1 enzyme [1] amounted to 16 nM. In addition, the inhibition on 11β-hsd-1 enzyme [2] worked out at 100%.

At 11β-hsd-1 enzyme [1], `COc1ccc(-c2cnc(N3CCN(S(=O)(=O)Nc4cccc(C)n4)CC3)nc2)cc1` [Example 151, 4-[5-(4-methoxyphenyl)-pyrimidin-2-yl]-N-(6-methylpyridin-2-yl)piperazine-1-sulfonamide] had an inhibition constant (Ki) of 1 nM. In addition, the inhibition on 11β-hsd-1 enzyme [2] came out at 100%.

The molecule `CCOC(=O)N1CCN(S(=O)(=O)Nc2cccc(CC)n2)CC1` [Example 196, ethyl 4-{[(6-ethylpyridin-2-yl)amino]sulfonyl}piperazine-1-carboxylate] showed a Ki on 11β-hsd-1 enzyme [1] of 20 nM. Moreover, on 11β-hsd-1 enzyme [2], the inhibition is 85.8%.

In turn, `Cc1cccc(NS(=O)(=O)N2CCCCCCC2)n1` [Example 127, N-(6-methylpyridin-2-yl)azocane-1-sulfonamide] registered a Ki at 11β-hsd-1 enzyme [1] of 25 nM. Besides, the inhibition at 11β-hsd-1 enzyme [2] is 91.8%.

With `CCCC1CCN(S(=O)(=O)Nc2cccc(CC)n2)CC1` [Example 89, N-(6-ethylpyridin-2-yl)-4-propylpiperidine-1-sulfonamide], the Ki on 11β-hsd-1 enzyme [1] stood at 1 nM. Also, the inhibition on 11β-hsd-1 enzyme [2] is 100%.

As to `Cc1cc(C)nc(NS(=O)(=O)N2CCN(c3ccc(C#N)cn3)[C@H](C)C2)c1` [Example 28], at 11β-hsd-1 enzyme [1], the affinity, expressed as Ki, was 0.66 nM. Further, the inhibition at 0.1 µM at 11β-hsd-1 enzyme [2] turned out to be 100%.

In turn, `Cc1ccc(N2CCN(S(=O)(=O)Nc3cccc(C)n3)CC2=O)cc1` [Example 140, 4-(4-methylphenyl)-N-(6-methylpyridin-2-yl)-3-oxopiperazine-1-sulfoflamide] registered an inhibition constant (Ki) on 11β-hsd-1 enzyme [1] of 250 nM. Further, at 11β-hsd-1 enzyme [2], the inhibition at 100 µM was 85.7%.

For the molecule `O=S(=O)(Nc1ccc2ccccc2n1)N1CCCCCCC1` [Example 155, N-quinolin-2-ylazocane-1-sulfonamide], the affinity at 11β-hsd-1 enzyme [1] corresponds to a Ki of 7.1 nM. The inhibition at 11β-hsd-1 enzyme [2] turned out to be 90.6%.

Molecule `Cc1cccc(NS(=O)(=O)N2CCCN(c3ccc(C#N)cn3)CC2)n1` [Example 44] came in with a Ki on 11β-hsd-1 enzyme [1] of 34 nM. Also, the inhibition at 0.1 µM at 11β-hsd-1 enzyme [2] amounted to 72%.

With `CCOC(=O)N1CCN(S(=O)(=O)Nc2ccc3ccccc3n2)CC1` [Example 160, ethyl 4-[(quinolin-2-ylamino)sulfonyl]piperazine-1-carboxylate], the Ki at 11β-hsd-1 enzyme [1] came to 11 nM. At 11β-hsd-1 enzyme [2], the inhibition stood at 85.7%.

Regarding `CCc1cccc(NS(=O)(=O)N2CCCN(c3nc4cc(Cl)ccc4o3)CC2)n1` [Example 150, 4-(5-chloro-13-benzoxazol-2-yl)-N-(6-ethylpyridin-2-yl)-14-diazepane-1-sulfonamide], the Ki at 11β-hsd-1 enzyme [1] turned out to be 23 nM. For the same molecule, the inhibition at 11β-hsd-1 enzyme [2] is 90.3%.

`N#Cc1ccc(C2CCN(S(=O)(=O)Nc3cccc(N)n3)CC2)nc1` [Example 39] came in with a Ki at 11β-hsd-1 enzyme [1] of 16 nM. The inhibition at 0.1 µM at 11β-hsd-1 enzyme [2] turned out to be 91%.

In turn, `CCc1cccc(NS(=O)(=O)N2CCC(c3ccccc3)CC2)n1` [Example 121, N-(6-ethylpyridin-2-yl)-4-phenylpiperidine-1-sulfanamide] returned an inhibition constant Ki on 11β-hsd-1 enzyme [1] of 3.5 nM. Moreover, at 11β-hsd-1 enzyme [2], the inhibition came out at 100%.

The molecule `CCc1cccc(NS(=O)(=O)N2CCCN(c3ccc(C(F)(F)F)cn3)CC2)n1` [Example 43] had a Ki at 11β-hsd-1 enzyme [1] of 12 nM. For the same molecule, the inhibition at 0.1 µM at 11β-hsd-1 enzyme [2] was found to be 93%.

At 11β-hsd-1 enzyme [1], `Cc1cc(C)nc(NS(=O)(=O)N2CCN(c3ccc(C#N)cn3)CC2)c1` [Example 9] displayed a Ki of 14 nM. The inhibition at 0.1 µM on 11β-hsd-1 enzyme [2] was 86.5%.

The Ki is a measure of affinity in units of concentration, obtained from inhibition or displacement.
